Here are results for 5 molecules from patent publication US11312718B2, “Formulations of (S)-3-(1-(9H-purin-6-ylamino)ethyl)-8-chloro-2-phenylisoquinolin-1(2H)-one” (Infinity Pharmaceuticals, Inc., priority 2011, dated 2022).

Series [1] concerns leukemic cells from early passage p190 transduced cultures. The settings on record: at about 70 mg/kg twice daily; cited from earlier work.
A short description of series [2]: Stability studies of packaged polymorph Forms (temperature and humidity storage). The class given is physicochemical. The settings on record: Double LDPE bags in fiberboard drum; 40° C. ± 2° C./75% RH ± 5% RH; 1, 2, 3, 6, and 12 months; HPLC, Karl Fischer, XRPD. From the text:
Polymorphs Form A and Form C were subjected to stability studies where several samples of each given Form were packaged and subjected to the given temperature and humidity conditions as described in Table 10. At each timepoint, a sample for that study was opened and evaluated by HPLC for purity, Karl Fischer for moisture content, and XRPD for confirming the polymorph Form.

Series [3] is described as follows: Salt screen: solubility in water. The class given is physicochemical. To be noted: listed as Free Form A. The text has this:
Salts of a compound of Formula (I) were formed with L-tartaric acid, p-toluenesulfonic acid, D-glucaronic acid, ethane-1,2-disulfonic acid (EDSA), 2-naphthalenesulfonic acid (NSA), hydrochloric acid (HCl) (mono and bis), hydrobromic acid (HBr), citric acid, naphthalene-1,5-disulfonic acid (NDSA), DL-mandelic acid, fumaric acid, sulfuric acid, maleic acid, methanesulfonic acid (MSA), benzenesulfonic acid (BSA), ethanesulfonic acid (ESA), L-malic acid, phosphoric acid, and aminoethanesulfonic acid (taurine).

Series [4] in a line: Solubility of polymorph Forms (H2O, SGF). The class given is physicochemical.
A short description of series [5]: Hold in humidity chambers at 9% RH and 95% RH. The class given is physicochemical. To be noted: after 1 week.
Series [6] in a line: Grinding stability (mortar and pestle). The settings on record: for Grinding (mortar & pestle): by hand, 2 and 5 min, XRPD. The class given is physicochemical. The method, then:
Forms A, C, D, and E were subjected to grinding experiments performed using a mortar and pestle by hand. Samples were lightly grounded for 2 minutes then analyzed by XRPD. Material was then returned to the mortar and pestle and grounded for an additional 3 minutes, for a total of 5 minutes of grinding, and re-analyzed by XRPD.

Series [7] can be described thus: Thermal stability (60° C.). The settings on record: for polymorph Form changes by XRPD: held at 60° C. for 10 days.
Description: (§1) Forms A, B, C, D, and E were held at 60° C. for 10 days followed by analysis by XRPD. In each case, 8 mL vials were charged with approximately 20 mg of material, with the exception of Form B for which 10 mg of material was charged. Samples equilibrated in an oven for 10 days.
Series [8] is described as follows: Drying of Form A at 70° C. Format: physicochemical. To be noted: Drying at 70° C. for six days. The method, then: 1. Procedure from CH2Cl2 and from IPA: Form C (1 g) was slurried in five volumes of dichloromethane. After holding for 15 hours, filtration, and drying, Form A was isolated in 82% yield. Scale-up was performed on a 20 g scale with a water-wet cake of Form C to yield Form A in 92% yield. […] Slurrying dry Form C in isopropyl alcohol using a similar method also yielded Form A.

Series [9] is described as follows: Dynamic vapor sorption (DVS) / moisture sorption analysis. Format: physicochemical. The settings on record: for Moisture Sorption (wt % water): listed as Free Form A; for hygroscopicity / moisture uptake at 60% RH / moisture uptake at 90% RH: DVS; for moisture uptake at 60% RH / moisture uptake at 90% RH: about 25° C. As to the method: Compounds and polymorphs provided herein can be characterized by moisture sorption analysis. This analysis was performed using a Hiden IGAsorp Moisture Sorption instrument. Moisture sorption experiments were carried out at about 25° C. by performing an adsorption scan from about 40% to about 90% RH in steps of about 10% RH and a desorption scan from about […] to about 0% RH in steps of about −10% RH. A second adsorption scan from about 10% to about 40% RH was performed to determine the moisture uptake from a drying state to the starting humidity. Samples were allowed to equilibrate for about four hours at each point or until an asymptotic weight was reached. After the isothermal sorption scan, samples were dried for about one hour at elevated temperature (about 60° C.) to obtain the dry weight. XRPD analysis on the material following moisture sorption was performed to determine the solid form.
Dynamic vapor sorption (DVS) analysis was performed on polymorph Forms A, B, C, D, and E using the DVS instrument and parameters as described above. […] Hysteresis indicative of hemi-hydrate formation was observed.

A further series relates to B6.Sle1z.Sle3z model. To be noted: cited from earlier work.
The conditions of series [10]: 1 week.
Description: as §1
The conditions of series [11]: PBS at pH 7.4, 37° C., 24 hours, 5 μM; cited from earlier work.

Read-outs that look alike come from different tables or passages of the source.

For `Cc1ccc(NC(=O)c2ccc(CN3CCN(C)CC3)cc2)cc1Nc1nccc(-c2cccnc2)n1` [imatinib], in series [1], the leukemogenesis result is “delay but not cure leukemogenesis”.
Consider `C[C@H](Nc1ncnc2[nH]cnc12)c1cc2cccc(Cl)c2c(=O)n1-c1ccccc1` [Form A, (S)-3-(1-(9H-purin-6-ylamino)ethyl)-8-chloro-2-phenylisoquinolin-1(2H)-one], for which the “instability of the polymorphic Form” value in [2] was “no indication of instability of the polymorphic Form”. Further, the “Solubility in water” value in series [3] is 0.03 mg/mL. Further, the “Solubility (mg/mL)” value in series [4] (H2O) is recorded as 0.030 (H2O) mg/mL; in series [4] (SGF), 21.800 (SGF) mg/mL. Further, the “changes in Form” value in series [5] was “no changes in Form”. Further, the “Form by XRPD after grinding” value in series [6] (after both 2 and 5 minutes of grinding by hand) is “remain consistent”. The “Grinding (mortar & pestle)” value in [6] was “remained Form”. In addition, the “Thermal stability (60° C.)” value in series [7] (60° C., after 1 week) is on record as “stable after 1”. In [7], the “polymorph Form changes by XRPD” value is “No polymorph Form changes were observed”. Besides, the “degradation in chemical or chiral purity” value in series [8] is recorded as “no degradation in chemical or chiral purity”. Further, the “Moisture Sorption (wt % water)” value in [9] (60% RH) is 60% RH: 0.7 wt % water; in [9] (90% RH), 90% RH: 2.6 wt % water. Besides, the DVS was determined as 0.7% @ 60% RH in series [9] (@ 60% RH) and 2.6% @ 90% RH in series [9] (@ 90% RH). The hygroscopicity result in [9] is “slightly hygroscopic”. Besides, the “moisture uptake at 60% RH” value in [9] (60% RH) was determined as 0.7 wt %. In addition, the “moisture uptake at 90% RH” value in series [9] (90% RH) was determined as 2.6 wt %.
With `CO[C@H]1C[C@@H]2CC[C@@H](C)[C@@](O)(O2)C(=O)C(=O)N2CCCC[C@H]2C(=O)O[C@H]([C@H](C)C[C@@H]2CC[C@@H](OCCO)[C@H](OC)C2)CC(=O)[C@H](C)/C=C(\C)[C@@H](O)[C@@H](OC)C(=O)[C@H](C)C[C@H](C)/C=C/C=C/C=C/1C` [RAD001], the lupus symptoms result in the series with B6.Sle1z.Sle3z model is given as “ameliorate lupus symptoms”.
On to `C[C@H](Nc1ncnc2[nH]cnc12)c1cc2cccc(Cl)c2c(=O)n1-c1ccccc1` [Form E, (S)-3-(1-(9H-purin-6-ylamino)ethyl)-8-chloro-2-phenylisoquinolin-1(2H)-one], for which the “Grinding (mortar & pestle)” value in [6] is recorded as “amorphous”. Moreover, the “polymorph Form changes by XRPD” value in [7] is “No polymorph Form changes were observed”. In addition, the “Thermal stability (60° C.)” value in series [10] is reported as “stable after 1”. In addition, the DVS in [9] (@ 60% RH) is 1.9% @ 60% RH; in [9] (@ 90% RH) it was 2.2% @ 90% RH. The hygroscopicity entry in [9] is on record as “slightly hygroscopic”. In addition, the “moisture uptake at 60% RH” value in series [9] (60% RH) worked out at 1.9 wt %. In addition, in series [9] (90% RH), the “moisture uptake at 90% RH” value is 2.2 wt %.
Regarding `O=C(O)CCCc1ccc(N(CCCl)CCCl)cc1` [chlorambucil], in series [11], the chemical stability result is on record as “largely hydrolyzed”.
